Values after ≈ are worked out from the molar mass of the structure shown.
How the values were obtained:
Assay type in all cases: functional
[1] = tested on: Staphylococcus aureus; assay: Antibacterial activity against methicillin-resistant Staphylococcus aureus N315 after 24 hrs by micro broth dilution method; details: N315, 24 h
[2] = tested on: Staphylococcus aureus; assay: Antibacterial activity against drug-resistant Staphylococcus aureus after 24 hrs by micro broth dilution method
[3] = tested on: Staphylococcus aureus; assay: Antibacterial activity against Staphylococcus aureus ATCC 25923 after 24 hrs by micro broth dilution method; details: ATCC 25923, 24 h
[4] = tested on: Staphylococcus aureus; assay: Antibacterial activity against Staphylococcus aureus ATCC 29213 after 24 hrs by micro broth dilution method; details: ATCC 29213, 24 h
[5] = tested on: Escherichia coli; assay: Antibacterial activity against drug-resistant Escherichia coli after 24 hrs by micro broth dilution method
[6] = tested on: Escherichia coli; assay: Antibacterial activity against Escherichia coli ATCC 25922 after 24 hrs by micro broth dilution method; details: ATCC 25922, 24 h
[7] = tested on: Pseudomonas aeruginosa; assay: Antibacterial activity against drug-resistant Pseudomonas aeruginosa after 24 hrs by micro broth dilution method
[8] = tested on: Pseudomonas aeruginosa; assay: Antibacterial activity against Pseudomonas aeruginosa ATCC 27853 after 24 hrs by micro broth dilution method; details: ATCC 27853, 24 h
[9] = tested on: Candida albicans; assay: Antifungal activity against drug-resistant Candida albicans after 24 hrs by micro broth dilution method
[10] = tested on: Candida albicans; assay: Antifungal activity against Candida albicans ATCC 90023 after 24 hrs by micro broth dilution method; details: ATCC 90023, 24 h
[11] = tested on: Candida tropicalis; assay: Antifungal activity against Candida tropicalis after 24 hrs by micro broth dilution method
[12] = tested on: Pseudomonas aeruginosa; assay: Potency index, ratio of norfloxacin MIC to compound MIC for Pseudomonas aeruginosa ATCC 27853

Structure (SMILES) | MIC [1] | MIC [2] | MIC [3] | MIC [4] | MIC [5] | MIC [6] | MIC [7] | MIC [8] | MIC [9] | MIC [10] | MIC [11] | Ratio [12]
COc1cc(/C=C(\C(C)=O)n2c([N+](=O)[O-])cnc2C)ccc1O | 1600 µM (≈ 508 µg/mL) | 1600 µM (≈ 508 µg/mL) | 400 µM (≈ 127 µg/mL) | 1600 µM (≈ 508 µg/mL) | 800 µM (≈ 254 µg/mL) | 100 µM (≈ 31.7 µg/mL) | 800 µM (≈ 254 µg/mL) | 400 µM (≈ 127 µg/mL) | 256 µg/mL (≈ 807 µM) | 128 µg/mL (≈ 403 µM) | 256 µg/mL (≈ 807 µM) | 4 - 16
Cc1ncc([N+](=O)[O-])n1/C(=C/c1ccc(F)cc1)C(C)O (configuration not stated) | 1760 µM (≈ 513 µg/mL) | 1710 µM (≈ 498 µg/mL) | 880 µM (≈ 256 µg/mL) | 1710 µM (≈ 498 µg/mL) | 1710 µM (≈ 498 µg/mL) | 440 µM (≈ 128 µg/mL) | 880 µM (≈ 256 µg/mL) | 110 µM (≈ 32 µg/mL) | 512 µg/mL (≈ 1760 µM) | 64 µg/mL (≈ 220 µM) | 128 µg/mL (≈ 439 µM) | 4 - 16
CC(=O)/C(=C\c1ccc(C)cc1)n1c([N+](=O)[O-])cnc1C | 1790 µM (≈ 511 µg/mL) | 220 µM (≈ 62.8 µg/mL) | 900 µM (≈ 257 µg/mL) | 450 µM (≈ 128 µg/mL) | 900 µM (≈ 257 µg/mL) | 56 µM (≈ 16 µg/mL) | 1790 µM (≈ 511 µg/mL) | 450 µM (≈ 128 µg/mL) | 512 µg/mL (≈ 1790 µM) | 256 µg/mL (≈ 897 µM) | 256 µg/mL (≈ 897 µM) | 4 - 16
CC(=O)/C(=C\c1ccc(F)cc1)n1c([N+](=O)[O-])cnc1C | 1760 µM (≈ 509 µg/mL) | 1760 µM (≈ 509 µg/mL) | 880 µM (≈ 255 µg/mL) | 1760 µM (≈ 509 µg/mL) | 1760 µM (≈ 509 µg/mL) | 110 µM (≈ 31.8 µg/mL) | 880 µM (≈ 255 µg/mL) | 440 µM (≈ 127 µg/mL) | 256 µg/mL (≈ 885 µM) | 128 µg/mL (≈ 442 µM) | 256 µg/mL (≈ 885 µM) | 4 - 16
Cc1ncc([N+](=O)[O-])n1/C(=C/c1c[nH]c2ccccc12)C(C)O (configuration not stated) | 810 µM (≈ 253 µg/mL) | 1630 µM (≈ 509 µg/mL) | 410 µM (≈ 128 µg/mL) | 810 µM (≈ 253 µg/mL) | 810 µM (≈ 253 µg/mL) | 410 µM (≈ 128 µg/mL) | 810 µM (≈ 253 µg/mL) | 410 µM (≈ 128 µg/mL) | 512 µg/mL (≈ 1640 µM) | 128 µg/mL (≈ 410 µM) | 256 µg/mL (≈ 820 µM) | 4 - 16
CC(=O)/C(=C\c1ccc(N(C)C)cc1)n1c([N+](=O)[O-])cnc1C | 1620 µM (≈ 509 µg/mL) | 1620 µM (≈ 509 µg/mL) | 1620 µM (≈ 509 µg/mL) | 410 µM (≈ 129 µg/mL) | 810 µM (≈ 255 µg/mL) | 810 µM (≈ 255 µg/mL) | 1620 µM (≈ 509 µg/mL) | 410 µM (≈ 129 µg/mL) | 512 µg/mL (≈ 1630 µM) | 128 µg/mL (≈ 407 µM) | 256 µg/mL (≈ 814 µM) | 4 - 16

Reference: ChEMBL document CHEMBL4177646, “Discovery of novel nitroimidazole enols as Pseudomonas aeruginosa DNA cleavage agents” (Bioorg Med Chem, 2017)
